Test results published in patent US20120028045A1, “Processes for the Preparation of Indiplon and Intermediates Thereof” (Glenmark Generics LTD, priority 2009, published 2012).

Assays:
Format in all cases: physicochemical
[1] = Specific surface area by BET (nitrogen absorption); details: crystal particles of indiplon
From the text: Specific surface area is defined in units of square meters per gram (m^2/g). It is usually measured by nitrogen absorption analysis. In this analysis, nitrogen is absorbed on the surface of the substance. The amount of the absorbed nitrogen (as measured during the absorption or the subsequent desorption process) is related to the surface area via a formula known as the B. ET. formula.

[2] = Particle size distribution (laser light scattering, Malvern Mastersizer 2000); details: crystal particles of indiplon
From the text: As used herein “Particle Size Distribution (P.S.D.)” means the cumulative volume size distribution of equivalent spherical diameters as determined by laser diffraction at 1 bar dispersive pressure in Sympatec Helos equipment.
“Mean particle size distribution, i.e., d (0.5)” correspondingly, means the median of said particle size distribution.
The particle size can be determined by such techniques as, for example, Malvern light scattering, a laser light scattering technique, etc., while herein, used Malvern Mastersizer 2000. It is noted the notation Dx means that X % of the particles have a diameter less than a specified diameter D. The particle sizes of the Indiplon can be obtained by, for example, any milling, grinding, micronizing or other particle size reduction method known in the art to bring the solid state indiplon any of the foregoing desired particle size range.

[3] = Bulk density as per USP method I

## CC(=O)N(C)c1cccc(-c2ccnc3c(C(=O)c4cccs4)cnn23)c1 [indiplon, N-methyl-N-[3-[3-(thien-2-ylcarbonyl)pyrazolo[1,5-a]pyrimidin-7-yl]phenyl]acetamide]
[1]
  Surface area by BET: 1.41 m^2/gm
[2]
  Particle size Distribution d(0.1): d(0.1) 4.949 μm
  Particle size Distribution d(0.9): d(0.9) 24.325 μm
[2]; median particle size
  Particle size Distribution d(0.5): d(0.5) 11.641 μm
[3]; after tapping (750), USP method I
  Bulk Density, after tapping (750): After tapping (750) = 0.47 g/ml as per USP
[3]; as such (untapped)
  Bulk Density, as such: As such = 0.24 g/ml
